We go through two compounds from ChEMBL document CHEMBL4359852, “Design, synthesis and biological evaluation of novel 5-(piperazin-1-yl)quinolin-2(1H)-one derivatives as potential chitin synthase inhibitors and antifungal agents” (Eur J Med Chem, 2019).

For one assay, the system named is Aspergillus flavus. Nature of the assay: Antifungal activity against Aspergillus flavus ATCC 16870 assessed as reduction in fungal cell growth incubated for 48 hrs by two-fold serial dilution method. It counts as functional. Particulars: ATCC 16870, 48 h.
The subject of the next assay is Candida albicans. Kind of assay: Antifungal activity against Candida albicans ATCC 76615 assessed as reduction in fungal cell growth incubated for 48 hrs by two-fold serial dilution method. The assay is classed as functional. Particulars: ATCC 76615, 48 h.
Assay [1] can be described thus: Inhibition of Saccharomyces cerevisiae CGMCC 2.145 chitin synthase using GlcNAc and UDP-GlcNAc as substrate incubated for 60 mins by microplate reader analysis.
Assay [2] has as its system Staphylococcus aureus. Nature of the assay: Antibacterial activity against Staphylococcus aureus ATCC 25923 assessed as reduction in bacterial cell growth incubated for overnight by two-fold serial dilution method. The assay is classed as functional.
A further assay relates to Cryptococcus neoformans. Nature of the assay: Antifungal activity against Cryptococcus neoformans ATCC 32719 assessed as reduction in fungal cell growth incubated for 48 hrs by two-fold serial dilution method. Particulars: ATCC 32719, 48 h. The assay is classed as functional.
Assay [3] deals with Staphylococcus aureus. Kind of assay: Antibacterial activity against methicillin resistant Staphylococcus aureus N 315 assessed as reduction in bacterial cell growth incubated for overnight by two-fold serial dilution method. It counts as functional.
Another assay has as its system Pseudomonas aeruginosa. Kind of assay: Antibacterial activity against Pseudomonas aeruginosa ATCC 9027 assessed as reduction in bacterial cell growth incubated for overnight by two-fold serial dilution method. The assay is classed as functional.
The subject of the next assay is Proteus vulgaris. Nature of the assay: Antibacterial activity against Bacillus proteus ATCC 8427 assessed as reduction in bacterial cell growth incubated for overnight by two-fold serial dilution method. The assay is classed as functional.
For another assay, the system named is Saccharomyces cerevisiae. Nature of the assay: Inhibition of Saccharomyces cerevisiae CGMCC 2.145 chitin synthase using GlcNAc and UDP-GlcNAc as substrate at 300 ug/ml incubated for 60 mins by microplate reader analysis relative to control.
The next assay has as its system Bacillus subtilis. Kind of assay: Antibacterial activity against Bacillus subtilis ATCC 6633 assessed as reduction in bacterial cell growth incubated for overnight by two-fold serial dilution method. The assay is classed as functional.
A further assay deals with Escherichia coli. Nature of the assay: Antibacterial activity against Escherichia coli JM109 assessed as reduction in bacterial cell growth incubated for overnight by two-fold serial dilution method. It counts as functional.

A word on the MIC: it is the lowest concentration that inhibits growth of the organism. The term IC50 denotes the point on the concentration scale where inhibition reaches its midpoint. Lower therefore signals inhibition by little substance. What is called inhibition is the drop in the measured response relative to a control, in per cent. As to `Cl.O=C1CCc2c(cccc2N2CCN(CC(O)Cn3ccnc3)CC2)N1` (racemic), the MIC in the assay with Aspergillus flavus came to 256 mg/L; in the assay with Candida albicans, 64 mg/L; in the assay with Staphylococcus aureus [2], 64 mg/L; with Cryptococcus neoformans, 256 mg/L; in the assay with Staphylococcus aureus [3], 128 mg/L; in the assay on Pseudomonas aeruginosa, 128 mg/L. Besides, the MIC worked out at 128 mg/L in the assay with Proteus vulgaris, 64 mg/L with Bacillus subtilis and 128 mg/L in the assay with Escherichia coli. The compound also yielded an IC50 in [1] of 470 µM. In addition, in the assay on Saccharomyces cerevisiae, the inhibition worked out at 53.3%.
Take `CCCCNCC(O)CN1CCN(c2cccc3c2CCC(=O)N3)CC1.Cl` (racemic): the MIC in the assay on Aspergillus flavus came to 256 mg/L; with Candida albicans, 64 mg/L; with Staphylococcus aureus [2], 256 mg/L; in the assay on Cryptococcus neoformans it was 256 mg/L; in the assay with Staphylococcus aureus [3] it was 128 mg/L; with Pseudomonas aeruginosa, 256 mg/L. The MIC with Proteus vulgaris, in the assay on Bacillus subtilis and in the assay with Escherichia coli was 256 mg/L in each case. For the same compound, the IC50 in [1] was 370 µM. The inhibition with Saccharomyces cerevisiae stood at 63.7%.
